Source: patent US20060165744A1, “Combination liposomal formulations” (NeoPharm, Inc, priority 2003, published 2006)

Key:
[1] = Percent entrapment of doxorubicin or mitoxantrone in reconstituted LEP (Sephardex G-25 column, UV absorbance); format: physicochemical
Description: Either doxorubicin (0.5 to 1.5 mg/ml) or mitoxantrone (0.5 to 1.5 mg/ml) was dissolved in deionized water, and these solutions were employed to reconstitute the lyophilized LEP cakes. The drug to lipid ratio varied from 1:120 to 1:24 (wt/wt) for doxorubicin and 1:120 to 1:24 (wt/wt) for mitoxantrone. Following reconstitution, the liposomal preparation was subjected to column chromatography using Sephardex G-25 to separate the free doxorubicin or mitoxantrone from the drug bound to the liposomes. The pre and post column samples were solubilized in methanol and the absorbance values were measured at appropriate wavelengths. The absorbance of doxorubicin (480 nm) and mitoxantrone (660 nm) was measured in the formulations both prior to and after column chromatography, and the percent entrapment was calculated using the following equation: % entrapment=[absorbance of drug after column/absorbance of drug before column]×100

[2] = system: P388/ADR (Adriamycin-resistant murine leukemia) cells; experiment: Cytotoxicity by sulforhodamine B assay, P388/ADR; format: cell-based; conditions: Mus musculus, treated 48 hrs, read-out: GI50 values (mM) against drug-resistant cancer cell lines
Description: (§1) SKVLB (Vincristine-resistant human ovarian) cells were obtained from Georgetown University and maintained in RPMI 1640 medium containing 10% heat-inactivated FBS, penicillin (100 units/mL) and streptomycin ([…]) with […] Vincristine. P388/ADR (Adriamycin-resistant murine leukemia) cells were purchased from National Cancer Institute (Frederick, Md.) and maintained in RPMI 1640 medium containing 10% heat-inactivated FBS, penicillin (100 units/mL) and streptomycin ([…]). SKVLB cells were cultured in drug-free media for at least a week before studies. The cells (10,000 cells/well for SKVLB and 25,000 cells/well for P388/ADR) were plated in a 96-well plate overnight and treated with doxorubicin, LEP or LEPD for 48 hrs. After incubation, the cytotoxicity was determined by a sulforhodamine B assay.

[3] = system: SKVLB (Vincristine-resistant human ovarian) cells; experiment: Cytotoxicity by sulforhodamine B assay, SKVLB; format: cell-based; conditions: treated 48 hrs, read-out: GI50 values (mM) against drug-resistant cancer cell lines
Description: as §1

P388/ADR cells = experiment: Anti-tumor efficacy on tumor bearing mice (increase in lifespan); format: in vivo, CD2F1 female mice; conditions: 1.0 mg/kg DOX, I.V. for five consecutive days
Description: After 24 hours, mice were randomly divided into different treatment groups (5 mice/group) and vehicle controls or test article formulations were administered I.V. for five consecutive days. Injection volume was based on individual mouse body w eight. Mice were weighed prior to dosing on Days 1-5. […] Mean survival time (MST) was determined and the percent increase in lifespan (% ILS) was calculated as follows: % ILS=[(100×MST of Treatment Group)/(MST of Control Group)]−100% ILS≧25% is considered as a positive response.

[4] = Effect of mitoxantrone or doxorubicin loading on entrapment of paclitaxel in LEP-ETU; format: physicochemical
Description: Mitoxantrone or doxorubicin (0.5 to 1.5 mg) was loaded into LEP-ETU.

COc1cccc2c1C(=O)c1c(O)c3c(c(O)c1C2=O)C[C@@](O)(C(=O)CO)C[C@@H]3O[C@H]1C[C@H](N)[C@H](O)[C@H](C)O1 [Doxorubicin (DOX), doxorubicin]
DOX % Entrapment UV 480 nm ([1]; Initial DOX concentration 0.50 mg/mL): 93%
DOX % Entrapment UV 480 nm ([1]; Initial DOX concentration 0.75 mg/mL): 92%
DOX % Entrapment UV 480 nm ([1]; Initial DOX concentration 1.00 mg/mL): 90%
DOX % Entrapment UV 480 nm ([1]; Initial DOX concentration 1.50 mg/mL): 78%
GI50 [2]: 0.015 mM
GI50 [3]: 0.016 mM
% ILS (P388/ADR cells): 18.20%

O=C1c2c(O)ccc(O)c2C(=O)c2c(NCCNCCO)ccc(NCCNCCO)c21 [MTO, mitoxantrone]
MTO % Entrapment UV 660 nm ([1]; Initial MTO concentration 0.50 mg/mL): 97%
MTO % Entrapment UV 660 nm ([1]; Initial MTO concentration 0.75 mg/mL): 99%
MTO % Entrapment UV 660 nm ([1]; Initial MTO concentration 1.00 mg/mL): 100%
MTO % Entrapment UV 660 nm ([1]; Initial MTO concentration 1.50 mg/mL): 101%

CC(=O)O[C@H]1C(=O)[C@@]2(C)[C@H]([C@H](OC(=O)c3ccccc3)[C@]3(O)C[C@H](OC(=O)[C@H](O)[C@@H](NC(=O)c4ccccc4)c4ccccc4)C(C)=C1C3(C)C)[C@]1(OC(C)=O)CO[C@@H]1C[C@@H]2O [Paclitaxel, paclitaxel]
Paclitaxel Entrapment (%) With DOX ([4]; Initial DOX 0.50 mg/mL): 102%
Paclitaxel Entrapment (%) With DOX ([4]; Initial DOX 0.75 mg/mL): 102%
Paclitaxel Entrapment (%) With DOX ([4]; Initial DOX 1.00 mg/mL): 102%
Paclitaxel Entrapment (%) With DOX ([4]; Initial DOX 1.50 mg/mL): 109%
